System: maximal (tonic hindlimb extension) electroshock seizures in male rats
Assay: Maximal electroshock seizure (MEST) threshold test, rat model
Format: in vivo
Settings: 2 mg/kg p.o. at 2 h
Procedure: The maximal electroshock seizure (MEST) threshold test in rodents is particularly sensitive for detecting potential anti convulsant properties ^1. In this model anticonvulsant agents elevate the threshold to electrically-induced seizures whilst proconvulsants lower the seizure threshold. […] The threshold for maximal (tonic hindlimb extension) electroshock seizures in male rats (Sprague Dawley, 80-150 g 6 weeks old) was determined by a Hugo Sachs Electronik stimulator which delivered a constant current (0.3 sec duration; from 1-30 mA in steps of […]). The procedure is similar to that outlined above for mouse and full details are as published by Upton et al,.^4 The percentage increase or decrease in CC50 for each group compared to the control is calculated. […]

Compound	percentage increase in CC50 compared to the control [%]
COc1ccc(C(=O)Nc2cnc3c(c2)CN(C)CC3(C)C)cc1C(F)(F)F.Cl [Example 3, N-(5,6,7,8-Tetrahydro-6,8,8-trimethyl[1,6]naphthyridin-3-yl)-4-methoxy-3-trifluoromethylbenzamide Hydrochloride]	314
CCOc1ccc(C(=O)Nc2cnc3c(c2)CN(C)CC3(C)C)cc1Br.Cl [Example 5, N-(5,6,7,8-Tetrahydro-6,8,8-trimethyl[1,6]naphthyridin-3-yl)-3-bromo-4-ethoxybenzamide Hydrochloride]	350

Source: patent publication US6410555B1, “Tetrahydronaphthyridinyl-carboxamides having anti-convulsant activity” (SmithKline Beecham p.l.c., priority 1998, dated 2002)
